Results reported in ChEMBL document CHEMBL1146385, “Discovery of novel phenoxyacetic acid derivatives as antimycobacterial agents” (2007).
Converted amounts (≈) assume the structure as drawn.

The molecules below were run on Mycobacterium tuberculosis (assay: Antimycobacterial activity against Mycobacterium tuberculosis H37Rv ATCC 27294 by broth micro dilution assay).
Type: functional

Compound	MIC [µg/mL]
COc1cc(C2=NN(C(N)=S)C(Cc3ccccc3)C2)ccc1OCC(=O)O (configuration not stated)	6.25 (≈ 15.6 µM)
COc1cc(C2=NN(C(N)=S)C(c3ccccc3O)C2)ccc1OCC(=O)O (configuration not stated)	0.58 (≈ 1.44 µM)
COc1cc(C2=NN(C(N)=O)C(c3ccccc3)C2)ccc1OCC(=O)O (configuration not stated)	6.25 (≈ 16.9 µM)
COc1cc(C2=NN(C(N)=O)C(c3ccc(C)cc3)C2)ccc1OCC(=O)O (configuration not stated)	4.12 (≈ 10.7 µM)
COc1cc(C2=NN(C(N)=S)C(c3ccc(O)cc3)C2)ccc1OCC(=O)O (configuration not stated)	0.2 (≈ 0.498 µM)
COc1cc(C2=NN(C(N)=O)C(c3ccccc3Cl)C2)ccc1OCC(=O)O (configuration not stated)	1.26 (≈ 3.12 µM)
COc1cc(C2=NN(C(N)=O)C(c3ccc(N)cc3)C2)ccc1OCC(=O)O (configuration not stated)	5.32 (≈ 13.8 µM)
COc1cc(C2=NN(C(N)=S)C(c3ccc(C)cc3)C2)ccc1OCC(=O)O (configuration not stated)	6.15 (≈ 15.4 µM)
COc1cc(C2=NN(C(N)=S)C(c3ccc(Cl)cc3)C2)ccc1OCC(=O)O (configuration not stated)	0.06 (≈ 0.143 µM)
COc1cc(C2=NN(C(N)=S)C(c3ccccc3Cl)C2)ccc1OCC(=O)O (configuration not stated)	0.12 (≈ 0.286 µM)
COc1cc(C2=NN(C(N)=O)C(c3ccc(F)cc3)C2)ccc1OCC(=O)O (configuration not stated)	3.16 (≈ 8.16 µM)
COc1cc(C2=NN(C(N)=O)C(c3ccc(Cl)cc3)C2)ccc1OCC(=O)O (configuration not stated)	0.13 (≈ 0.322 µM)
COc1cc(C2=NN(C(N)=O)C(Cc3ccccc3)C2)ccc1OCC(=O)O (configuration not stated)	6.25 (≈ 16.3 µM)
COc1cc(C2=NN(C(N)=S)C(c3ccc(N)cc3)C2)ccc1OCC(=O)O (configuration not stated)	12.5 (≈ 31.2 µM)
COc1cc(C2=NN(C(N)=S)C(c3cccc([N+](=O)[O-])c3)C2)ccc1OCC(=O)O (configuration not stated)	6.25 (≈ 14.5 µM)
COc1cc(C2=NN(C(N)=S)C(c3ccccc3)C2)ccc1OCC(=O)O (configuration not stated)	6.25 (≈ 16.2 µM)
COc1cc(C2=NN(C(N)=O)C(c3ccccc3O)C2)ccc1OCC(=O)O (configuration not stated)	0.58 (≈ 1.51 µM)
COc1cc(C2=NN(C(N)=O)C(c3cccc([N+](=O)[O-])c3)C2)ccc1OCC(=O)O (configuration not stated)	6.25 (≈ 15.1 µM)
COc1cc(C2=NN(C(N)=S)C(c3ccc(F)cc3)C2)ccc1OCC(=O)O (configuration not stated)	0.96 (≈ 2.38 µM)
COc1cc(C2=NN(C(N)=O)C(c3ccc(O)cc3)C2)ccc1OCC(=O)O (configuration not stated)	1.23 (≈ 3.19 µM)
COc1cc(C2=NN(C(N)=O)C(c3ccc([N+](=O)[O-])cc3)C2)ccc1OCC(=O)O (configuration not stated)	6.25 (≈ 15.1 µM)
COc1cc(C2=NN(C(N)=S)C(c3ccc([N+](=O)[O-])cc3)C2)ccc1OCC(=O)O (configuration not stated)	6.32 (≈ 14.7 µM)
